Measured values: US20220023289A1, “Application Of Pyrroloquinoline Quinone In Preparation Of Medicament Used For Preventing And Treating Acute Altitude Sickness And Acute Altitude Hypoxia Injury” (priority 2018, published 2022)

Tests used:
[1] = test system: rats with acute altitude hypoxia injury; test: Oxidative stress indexes of rats with acute altitude hypoxia injury; type: in vivo, Wistar rat
From the text: Operate according to the instructions, and then measure the absorbance value of each tube, and afterwards calculate the content of malondialdehyde in the sample to be tested according to the formula. […] The latter oxidizes hydroxylamine to form nitrite. It appears purplish red under the action of chromogenic agent. Measure its absorbance by a visible light spectrophotometer. When the measured sample contains superoxide dismutase, it has specific inhibitory effect on superoxide anion free radicals, make formed nitrite reduced. […] The superoxide dismutase activity in the tested sample can be calculated by formula calculation. […] The latter can form a stable complex with phenanthrophins and measure its antioxidant capacity by colorimetry. Operate according to the kit instructions, measure the absorbance of each tube at a wavelength of 520 nm, and then calculate the total antioxidant capacity in the sample to be tested according to the formula.

[2] = test system: rats exposed to acute altitude hypoxia; test: Liver ATP and glycogen in rats exposed to acute altitude hypoxia; type: in vivo, Wistar rat
Experimental: Determination of adenosine triphosphate (ATP): Perform enzyme-linked immunosorbent assay by double-antibody one-step sandwich method. To the coated microwells pre-coated with rat adenosine triphosphate (ATP) capture antibody, add in sequence the specimens, standard, and HRP-labeled detection antibody, and then incubate and wash thoroughly. Use a substrate TMB for color development, TMB is converted into blue under the catalysis of peroxidase and converted into the final yellow color under the action of acid. The color intensity is positively correlated with the rat adenosine triphosphate (ATP) in the sample. […] Determination of liver glycogen (GC): Perform enzyme-linked immunosorbent assay by double-antibody one-step sandwich method. To the coated microwells pre-coated with rat liver glycogen (GC) capture antibody, add in sequence the specimens, standard, and HRP-labeled detection antibody, and then incubate and wash thoroughly. Use a substrate TMB for color development, TMB is converted into blue under the catalysis of peroxidase and converted into the final yellow color under the action of acid. The color intensity is positively correlated with the rat liver glycogen (GC) in the sample.

[3] = Body weight of mice before closed hypoxia tolerance test
[4] = Rat body weight before the acute decompression hypoxia experiment (intragastric 7 days)
Experimental: Select healthy Wistar rats weight 160-200 g, half female and half male. After feeding for 3 days, these Wistar rats are randomly divided into ten groups according to their body weight, each group has 16±2 rats. The groups are divided as follows: five groups of the hypoxic exposure drug test group, respectively, are given 0.91 mg/kg, 1.83 mg/kg, 3.66 mg/kg, 7.31 mg/kg, and 14.63 mg/kg drugs. […] After continuous intragastric administration for 7 days, the animals in the hypoxic exposure group are simultaneously put into the decompression and hypoxia compound experimental chamber, the hatch is closed, and the pressure is reduced at a speed of 10 m/s. After being raised to an altitude of 6000 m and maintained for 8 hours, the speed in 10 m/s drops is reduced to normal altitude, open the hatch, and then take out the animal, collect blood samples (after standing for 1 hour, the supernatant is centrifuged and stored at −20° C.), and liver tissue samples. Detection indicator includes body weight, serum blood glucose, ATP, lactic acid, endothelin, nitric oxide, SOD, CO, MDA related to oxidative stress, and total protein, albumin, triglycerides, total cholesterol, high-density lipoprotein cholesterol, low-density lipoprotein cholesterol, glutamic pyruvic transaminase, total bilirubin, gluamic oxalacetic transaminase, serum urea nitrogen, creatinine, uric acid, lactate dehydrogenase, creatine kinase, α-hydroxybutyrate dehydrogenase; liver ATP, hepatic glycogen. Except that the formal oxygen control animal group is not put into the decompression and hypoxia compound experimental chamber, other experimental conditions and detection indicators are the same.

[5] = female rats, hypoxia, 0.91 mg/kg
[6] = female rats, hypoxia, 1.83 mg/kg
[7] = female rats, hypoxia, 3.66 mg/kg
[8] = female rats, hypoxia, 7.31 mg/kg
[9] = female rats, hypoxia, 14.63 mg/kg
[10] = female rats, normoxia, 3.66 mg/kg
[11] = male rats, hypoxia, 14.63 mg/kg

SMILES: O=C(O)c1cc(C(=O)O)c2c(n1)C(=O)C(=O)c1cc(C(=O)O)[nH]c1-2 [PQQ, pyrroloquinoline quinone]
- Endo Dialdehyde [1, 5]: 15.07 ± 1.91 nmol/L
- Superoxide dismutase [1, 5]: 66.11 ± 4.18 U/ml
- Total antioxidants [1, 5]: 10.52 ± 1.08 U/ml
- Endo Dialdehyde [1, 6]: 13.96 ± 1.33 nmol/L
- Superoxide dismutase [1, 6]: 60.79 ± 2.56 U/ml
- Total antioxidants [1, 6]: 10.06 ± 0.77 U/ml
- Endo Dialdehyde [1, 7]: 13.73 ± 0.27 nmol/L
- Superoxide dismutase [1, 7]: 56.82 ± 3.80 U/ml
- Total antioxidants [1, 7]: 10.84 ± 0.47 U/ml
- Endo Dialdehyde [1, 8]: 14.14 ± 2.68 nmol/L
- Superoxide dismutase [1, 8]: 56.65 ± 2.97 U/ml
- Total antioxidants [1, 8]: 10.37 ± 0.75 U/ml
- Endo Dialdehyde [1, 9]: 14.81 ± 1.37 nmol/L
- Superoxide dismutase [1, 9]: 56.16 ± 3.64 U/ml
- Total antioxidants [1, 9]: 10.59 ± 1.65 U/ml
- effect on malondialdehyde ([1]; female rats, normoxia): can slightly increase
- effect on serum superoxide dismutase and total antioxidants ([1]; female rats, normoxia): no significant effects
- Endo Dialdehyde [1, 10]: 14.39 ± 0.85 nmol/L
- Superoxide dismutase [1, 10]: 52.21 ± 1.23 U/ml
- Total antioxidants [1, 10]: 11.28 ± 0.83 U/ml
- effect on serum superoxide dismutase activity ([1]; hypoxia exposed female rats): can increase
- effect on serum total antioxidants and malondialdehyde ([1]; hypoxia exposed female rats): no significant effects
- effect on serum superoxide dismutase activity ([1]; hypoxia exposed male rats): can increase
- effect on serum total antioxidants and malondialdehyde ([1]; male rats): no significant effect
- Malonaldehyde ([1]; male rats, hypoxia, 0.91 mg/kg): 2.79 ± 0.62 nmol/L
- Superoxide dismutase ([1]; male rats, hypoxia, 0.91 mg/kg): 196.26 ± 4.15 U/ml
- Total antioxidants ([1]; male rats, hypoxia, 0.91 mg/kg): 3.17 ± 1.40 U/ml
- Malonaldehyde ([1]; male rats, hypoxia, 1.83 mg/kg): 2.89 ± 1.09 nmol/L
- Superoxide dismutase ([1]; male rats, hypoxia, 1.83 mg/kg): 193.38 ± 4.53 U/ml
- Total antioxidants ([1]; male rats, hypoxia, 1.83 mg/kg): 2.77 ± 1.10 U/ml
- Malonaldehyde ([1]; male rats, hypoxia, 3.66 mg/kg): 3.9 ± 1.39 nmol/L
- Superoxide dismutase ([1]; male rats, hypoxia, 3.66 mg/kg): 189.59 ± 5.46 U/ml
- Total antioxidants ([1]; male rats, hypoxia, 3.66 mg/kg): 3.81 ± 0.97 U/ml
- Malonaldehyde ([1]; male rats, hypoxia, 7.31 mg/kg): 3.15 ± 0.99 nmol/L
- Superoxide dismutase ([1]; male rats, hypoxia, 7.31 mg/kg): 186.20 ± 6.32 U/ml
- Total antioxidants ([1]; male rats, hypoxia, 7.31 mg/kg): 3.62 ± 1.94 U/ml
- Malonaldehyde [1, 11]: 3.59 ± 1.15 nmol/L
- Superoxide dismutase [1, 11]: 179.58 ± 6.32 U/ml
- Total antioxidants [1, 11]: 1.49 ± 2.30 U/ml
- effect on liver ATP and glycogen content ([2]; female rats, after hypoxia exposure and normoxia): no significant effects
- liver Glycogen [2, 5]: 2.52 ± 0.36 ng/mL
- liver ATP [2, 6]: 1.58 ± 0.27 µg/mL
- liver Glycogen [2, 6]: 2.89 ± 0.57 ng/mL
- liver ATP [2, 7]: 1.64 ± 0.37 µg/mL
- liver Glycogen [2, 7]: 2.84 ± 0.67 ng/mL
- liver Glycogen [2, 8]: 3.07 ± 0.19 ng/mL
- liver Glycogen [2, 9]: 3.62 ± 0.38 ng/mL
- liver ATP [2, 10]: 1.62 ± 0.13 µg/mL
- liver Glycogen [2, 10]: 2.89 ± 0.28 ng/mL
- effect on liver ATP and glycogen content ([2]; male rats): can increase
- liver Glycogen ([2]; male rats, hypoxia, 0.91 mg/kg): 2.41 ± 0.41 ng/mL
- liver Glycogen ([2]; male rats, hypoxia, 1.83 mg/kg): 2.23 ± 0.17 ng/mL
- liver Glycogen ([2]; male rats, hypoxia, 3.66 mg/kg): 2.70 ± 0.84 ng/mL
- liver Glycogen ([2]; male rats, hypoxia, 7.31 mg/kg): 2.86 ± 0.43 ng/mL
- liver Glycogen [2, 11]: 2.55 ± 0.28 ng/mL
- weight 1 day ([3]; female mice, 1.32 mg/kg): 20.31 ± 1.29 g
- weight 3 days ([3]; female mice, 1.32 mg/kg): 22.33 ± 1.91 g
- weight 1 day ([3]; female mice, 2.64 mg/kg): 19.83 ± 1.19 g
- weight 3 days ([3]; female mice, 2.64 mg/kg): 22.22 ± 1.28 g
- weight 1 day ([3]; female mice, 5.28 mg/kg): 20.58 ± 1.07 g
- weight 3 days ([3]; female mice, 5.28 mg/kg): 22.52 ± 1.71 g
- weight 1 day ([3]; female mice, 10.56 mg/kg): 20.13 ± 1.64 g
- weight 3 days ([3]; female mice, 10.56 mg/kg): 21.92 ± 1.83 g
- weight 1 day ([3]; female mice, 21.12 mg/kg): 20.19 ± 1.34 g
- weight 3 days ([3]; female mice, 21.12 mg/kg): 22.49 ± 1.77 g
- weight 1 day ([3]; male mice, 1.32 mg/kg): 15.46 ± 1.04 g
- weight 3 days ([3]; male mice, 1.32 mg/kg): 17.74 ± 1.30 g
- weight 1 day ([3]; male mice, 2.64 mg/kg): 15.40 ± 1.03 g
- weight 3 days ([3]; male mice, 2.64 mg/kg): 17.46 ± 1.29 g
- weight 1 day ([3]; male mice, 5.28 mg/kg): 15.51 ± 1.11 g
- weight 3 days ([3]; male mice, 5.28 mg/kg): 17.41 ± 1.23 g
- weight 1 day ([3]; male mice, 10.56 mg/kg): 15.32 ± 1.10 g
- weight 3 days ([3]; male mice, 10.56 mg/kg): 16.20 ± 1.03 g
- weight 1 day ([3]; male mice, 21.12 mg/kg): 15.45 ± 0.97 g
- weight 3 days ([3]; male mice, 21.12 mg/kg): 17.54 ± 1.14 g
- rat body weight Female 1 day ([4]; 0.91 mg/kg): 154.4 ± 7.2 g
- rat body weight Female 7 days ([4]; 0.91 mg/kg): 169.6 ± 3.3 g
- rat body weight Male 1 day ([4]; 0.91 mg/kg): 173.4 ± 7.4 g
- rat body weight Male 7 days ([4]; 0.91 mg/kg): 196.4 ± 5.7 g
- rat body weight Female 1 day ([4]; 1.83 mg/kg): 153.6 ± 6.9 g
- rat body weight Female 7 days ([4]; 1.83 mg/kg): 167.4 ± 6.7 g
- rat body weight Male 1 day ([4]; 1.83 mg/kg): 173.6 ± 5.9 g
- rat body weight Male 7 days ([4]; 1.83 mg/kg): 206.8 ± 6.2 g
- rat body weight Female 1 day ([4]; 3.66 mg/kg): 154.1 ± 8.6 g
